Experimental data: US20250304563A1, “ACTIVATORS OF EFFECTOR T CELLS” (Orum Therapeutics, Inc., priority 2022, published 2025)

Key:
Human primary T cells [1] = assay: T cell activation: secreted IL-2; type: cell-based; settings: 48 hours, fold over background normalized to Compound 141A; for IL-2 1 nM: 1 nM compound; for IL-2 10 nM: 10 nM compound; for IL-2 100 nM: 100 nM compound
Experimental: (§1) Human primary T cells were isolated from commercially available frozen peripheral blood mononuclear cells (HemaCare Corporation) or from fresh LeukoPaks (Research Blood Components). T cells were isolated through depletion of non-T cells using negative selection kit according to the manufacturer's protocol (Miltenyi Biotec, Human Pan T Cell Isolation Kit, 130-096-535). Isolated cells were cultured overnight at 37° C. with 5% CO2 and plated at 1×10^5 cells per well in XVivo-15 serum-free media (Lonza, 04-418Q) into 96 well plates coated with anti-CD3 (OKT3) antibody (ThermoFisher, 16-0037-85). To coat the plates for T cell capture, anti-CD3 antibody was diluted in PBS at 10 μg/mL and 100 μl added to each well. Plates were incubated at 4° C. overnight or at 37° C. for 2 hours and washed once with PBS before use. Serial dilutions of each compound were added in duplicates to the T cells to assess their effect on T cell activation. T cells treated with 5 μg/mL of CD28 antibody (ThermoFisher, 16-0289-85) or T cells stimulated by CD3 only were used as a control. Plates were incubated with the Cbl-b inhibitors for 48 hours at 37° C. with 5% CO2, and supernatants were subsequently analyzed for levels of the activation induced secreted cytokines IL-2 or IFN-y (BD Biosciences CBA Flex Beads, 558269, 558270). T cells were additionally stained with anti-CD69 antibody (Invitrogen, 12-0699-42 which labels a T cell activation associated membrane protein to and surface expression was measured by flow cytometry (ThermoFisher Attune NxT).
(§2) To control for natural inter-donor variability in T cell responses intrinsic to using primary human donor derived cells, secreted IL-2 and IFN-y measurements for each test compound were reported as the fold increase of the compound treated levels over background (antiCD3/CD28 treatment only) normalized to the values obtained for Compound 141A. Results for compound treatment-induced changes in CD69 levels are similarly reported as the fold increase due to compound treatment over anti-CD3 stimulated background only, normalized to values obtained for Compound 141A.
Normalized T cell IL-2 responses were sorted into ranges as follows: fold over background values between 1.41 and 1.8: range “X”, between 0.80 and 1.40: range “A”, values between 0.31 and 0.79: range “B” values between 0.10 and 0.30: range “C”, values between 0.01 and 0.09: range “D.”

Human primary T cells [2] = assay: T cell activation: CD69 surface expression by flow cytometry; type: cell-based; settings: fold over anti-CD3 stimulated background normalized to Compound 141A; for CD69 1 nM: 1 nM compound; for CD69 10 nM: 10 nM compound; for CD69 100 nM: 100 nM compound
Experimental: as §1, §2
Similarly, bins for normalized CD69 levels were sorted into ranges as follows: fold over background values between 1.11 and 1.6: range “X”, values between 0.81 and 1.10: range “A”; values between 0.61 and 0.80: range “B;” values between 0.30 and 0.60: range “C”.

Human primary T cells [3] = assay: T cell activation: secreted IFN-y; type: cell-based; settings: 48 hours, fold over background normalized to Compound 141A; for IFN-y 1 nM: 1 nM compound; for IFN-y 10 nM: 10 nM compound; for IFN-y 100 nM: 100 nM compound
Experimental: as §1, §2
Normalized T cell IFN-y responses were sorted into ranges as follows: fold over background between 1.10 and 2.00: range “A”, values between 0.31 and 1.00: range “B;” values between 0.10 and 0.30: range “C”, and values between 0.01 and 0.09: range “D.”

[4] = molecular target: Cbl-b (36-427 aa truncated form, N-terminus Avi-tag) (Homo sapiens (Human), UniProt Q13191); assay: Cbl-b binding: TR-FRET displacement of BODIPY-FL probe
Sequence of Cbl-b (36-427 aa truncated form, N-terminus Avi-tag) (Q13191 36-427): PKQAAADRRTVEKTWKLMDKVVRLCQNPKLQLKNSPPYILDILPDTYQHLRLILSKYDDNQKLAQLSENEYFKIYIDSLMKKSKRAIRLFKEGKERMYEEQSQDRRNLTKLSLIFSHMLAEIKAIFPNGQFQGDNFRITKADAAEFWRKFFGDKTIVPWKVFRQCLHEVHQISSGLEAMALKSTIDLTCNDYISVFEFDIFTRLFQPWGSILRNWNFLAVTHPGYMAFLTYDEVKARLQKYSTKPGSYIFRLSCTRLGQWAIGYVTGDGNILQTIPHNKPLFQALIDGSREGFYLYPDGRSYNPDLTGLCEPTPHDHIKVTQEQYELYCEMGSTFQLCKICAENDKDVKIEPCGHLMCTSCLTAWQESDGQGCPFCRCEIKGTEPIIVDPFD
Summary of the method: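 IC50 from loss of terbium–BODIPY-FL TR-FRET signal as compounds compete off a fluorescent Cbl-b inhibitor probe (1 uM) for 1 h at RT. Protein: N-Avi-tagged human Cbl-b 36-427 on streptavidin-terbium, 20 mM HEPES pH 7.5 buffer.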

Cn1cnnc1CC1(c2cc(NCCC#N)nc(N3Cc4c(cc(CN5CC6(F)CC(CO)(C5)C6)cc4C(F)(F)F)C3=O)c2)COC1.O=C(O)C(F)(F)F [Compound 164, 3-{[6-(6-{[1-fluoro-5-(hydroxymethyl)-3-azabicyclo[3.1.1]heptan-3-yl]methyl}-1-oxo-4-(trifluoromethyl)-3H-isoindol-2-yl)-4-{3-[(4-methyl-1,2,4-triazol-3-yl)methyl]oxetan-3-yl}pyridin-2-yl]amino}propanenitrile; trifluoroacetic acid]
IL-2 1 nM (Human primary T cells [1]): C (values between 0.10 and 0.30: range “C”) | IL-2 10 nM (Human primary T cells [1]): C (values between 0.10 and 0.30: range “C”) | IL-2 100 nM (Human primary T cells [1]): C (values between 0.10 and 0.30: range “C”) | CD69 1 nM (Human primary T cells [2]): C (values between 0.30 and 0.60: range “C”) | CD69 10 nM (Human primary T cells [2]): C (values between 0.30 and 0.60: range “C”) | CD69 100 nM (Human primary T cells [2]): C (values between 0.30 and 0.60: range “C”) | IFN-y 1 nM (Human primary T cells [3]): C (values between 0.10 and 0.30: range “C”) | IFN-y 10 nM (Human primary T cells [3]): C (values between 0.10 and 0.30: range “C”) | IFN-y 100 nM (Human primary T cells [3]): B (values between 0.31 and 1.00: range “B;”) | IC50 [4]: 5.01 to 20 nM

CCNc1cc(C2(Cc3nncn3C)COC2)cc(N2Cc3c(cc([C@@H](CSC)N4CCC[C@H](C)C4)cc3C(F)(F)F)C2=O)n1 [Compound 141B, 2-[6-(ethylamino)-4-{3-[(4-methyl-1,2,4-triazol-3-yl)methyl]oxetan-3-yl}pyridin-2-yl]-6-[(1s)-1-[(3S)-3-methylpiperidin-1-yl]-2-(methylsulfanyl)ethyl]-4-(trifluoromethyl)-3H-isoindol-1-one]
IL-2 1 nM (Human primary T cells [1]): B (values between 0.31 and 0.79: range “B”) | IL-2 10 nM (Human primary T cells [1]): B (values between 0.31 and 0.79: range “B”) | IL-2 100 nM (Human primary T cells [1]): B (values between 0.31 and 0.79: range “B”) | CD69 10 nM (Human primary T cells [2]): A (values between 0.81 and 1.10: range “A”) | CD69 100 nM (Human primary T cells [2]): A (values between 0.81 and 1.10: range “A”) | IFN-y 1 nM (Human primary T cells [3]): C (values between 0.10 and 0.30: range “C”) | IFN-y 10 nM (Human primary T cells [3]): B (values between 0.31 and 1.00: range “B;”) | IFN-y 100 nM (Human primary T cells [3]): B (values between 0.31 and 1.00: range “B;”) | IC50 [4]: 5.01 to 20 nM

CSc1cc(C(CO)N2CCC[C@H](C)C2)cc2c1CN(c1cccc([C@]3(c4nncn4C)C[C@H](C)C3)c1)C2=O (stereo partly drawn) [Compound 170, 6-{2-hydroxy-1-[(3S)-3-methylpiperidin-1-yl]ethyl}-4-(methylsulfanyl)-2-{3-[(1r,3s)-3-methyl-1-(4-methyl-1,2,4-triazol-3-yl)cyclobutyl]phenyl}-3H-isoindol-1-one]
IL-2 1 nM (Human primary T cells [1]): C (values between 0.10 and 0.30: range “C”) | IL-2 10 nM (Human primary T cells [1]): C (values between 0.10 and 0.30: range “C”) | IL-2 100 nM (Human primary T cells [1]): B (values between 0.31 and 0.79: range “B”) | CD69 1 nM (Human primary T cells [2]): C (values between 0.30 and 0.60: range “C”) | CD69 10 nM (Human primary T cells [2]): C (values between 0.30 and 0.60: range “C”) | CD69 100 nM (Human primary T cells [2]): A (values between 0.81 and 1.10: range “A”) | IFN-y 1 nM (Human primary T cells [3]): B (values between 0.31 and 1.00: range “B;”) | IFN-y 10 nM (Human primary T cells [3]): B (values between 0.31 and 1.00: range “B;”) | IFN-y 100 nM (Human primary T cells [3]): B (values between 0.31 and 1.00: range “B;”) | IC50 [4]: 1 to 5 nM

CCNc1cc(C2(Cc3nncn3C)COC2)cc(N2Cc3c(cc([C@H](CSC)N4CCC[C@H](C)C4)cc3C(F)(F)F)C2=O)n1 [Compound 141A, 2-[6-(ethylamino)-4-{3-[(4-methyl-1,2,4-triazol-3-yl)methyl]oxetan-3-yl}pyridin-2-yl]-6-[(1R)-1-[(3S)-3-methylpiperidin-1-yl]-2-(methylsulfanyl)ethyl]-4-(trifluoromethyl)-3H-isoindol-1-one]
IL-2 1 nM (Human primary T cells [1]): B (values between 0.31 and 0.79: range “B”) | IL-2 10 nM (Human primary T cells [1]): B (values between 0.31 and 0.79: range “B”) | IL-2 100 nM (Human primary T cells [1]): A (between 0.80 and 1.40: range “A”) | CD69 10 nM (Human primary T cells [2]): A (values between 0.81 and 1.10: range “A”) | CD69 100 nM (Human primary T cells [2]): A (values between 0.81 and 1.10: range “A”) | IFN-y 1 nM (Human primary T cells [3]): B (values between 0.31 and 1.00: range “B;”) | IFN-y 10 nM (Human primary T cells [3]): B (values between 0.31 and 1.00: range “B;”) | IFN-y 100 nM (Human primary T cells [3]): A (fold over background between 1.10 and 2.00: range “A”) | IC50 [4]: 5.01 to 20 nM

CCC(CC#N)Nc1cc(C2(Cc3nncn3C)COC2)cc(N2Cc3c(cc(CN4CCC[C@H](C)C4)cc3C(F)(F)F)C2=O)n1.O=C(O)C(F)(F)F (stereo partly drawn) [Compound 135, 3-((4-(3-((4-methyl-4H-1,2,4-triazol-3-yl)methyl)oxetan-3-yl)-6-(6-(((S)-3-methylpiperidin-1-yl)methyl)-1-oxo-4-(trifluoromethyl)isoindolin-2-yl)pyridin-2-yl)amino)pentanenitrile; trifluoroacetic acid]
IL-2 1 nM (Human primary T cells [1]): C (values between 0.10 and 0.30: range “C”) | IL-2 10 nM (Human primary T cells [1]): B (values between 0.31 and 0.79: range “B”) | IL-2 100 nM (Human primary T cells [1]): B (values between 0.31 and 0.79: range “B”) | CD69 10 nM (Human primary T cells [2]): B (values between 0.61 and 0.80: range “B;”) | CD69 100 nM (Human primary T cells [2]): A (values between 0.81 and 1.10: range “A”) | IFN-y 1 nM (Human primary T cells [3]): C (values between 0.10 and 0.30: range “C”) | IFN-y 10 nM (Human primary T cells [3]): B (values between 0.31 and 1.00: range “B;”) | IFN-y 100 nM (Human primary T cells [3]): B (values between 0.31 and 1.00: range “B;”) | IC50 [4]: 5.01 to 20 nM

C=CC(=O)NCc1cc(C2(Cc3nncn3C)COC2)cc(N2Cc3c(cc(CN4CCC[C@H](C)C4)cc3C(F)(F)F)C2=O)n1 [Compound 116, N-[(4-{3-[(4-methyl-1,2,4-triazol-3-yl)methyl]oxetan-3-yl}-6-(6-{[(3S)-3-methylpiperidin-1-yl]methyl}-1-oxo-4-(trifluoromethyl)-3H-isoindol-2-yl)pyridin-2-yl)methyl]prop-2-enamide]
IL-2 1 nM (Human primary T cells [1]): C (values between 0.10 and 0.30: range “C”) | IL-2 10 nM (Human primary T cells [1]): C (values between 0.10 and 0.30: range “C”) | IL-2 100 nM (Human primary T cells [1]): B (values between 0.31 and 0.79: range “B”) | CD69 10 nM (Human primary T cells [2]): C (values between 0.30 and 0.60: range “C”) | CD69 100 nM (Human primary T cells [2]): B (values between 0.61 and 0.80: range “B;”) | IFN-y 1 nM (Human primary T cells [3]): C (values between 0.10 and 0.30: range “C”) | IFN-y 10 nM (Human primary T cells [3]): C (values between 0.10 and 0.30: range “C”) | IFN-y 100 nM (Human primary T cells [3]): B (values between 0.31 and 1.00: range “B;”) | IC50 [4]: 5.01 to 20 nM

CSc1cc(CN2CCC[C@H](C)C2)cc2c1CN(c1cc(C3(Cc4nncn4C)COC3)cc(N)n1)C2=O [Compound 173]
IL-2 1 nM (Human primary T cells [1]): D (values between 0.01 and 0.09: range “D.”) | IL-2 10 nM (Human primary T cells [1]): D (values between 0.01 and 0.09: range “D.”) | IL-2 100 nM (Human primary T cells [1]): D (values between 0.01 and 0.09: range “D.”) | CD69 1 nM (Human primary T cells [2]): C (values between 0.30 and 0.60: range “C”) | CD69 10 nM (Human primary T cells [2]): C (values between 0.30 and 0.60: range “C”) | CD69 100 nM (Human primary T cells [2]): C (values between 0.30 and 0.60: range “C”) | IFN-y 1 nM (Human primary T cells [3]): C (values between 0.10 and 0.30: range “C”) | IFN-y 10 nM (Human primary T cells [3]): B (values between 0.31 and 1.00: range “B;”) | IFN-y 100 nM (Human primary T cells [3]): B (values between 0.31 and 1.00: range “B;”) | IC50 [4]: 1 to 5 nM

CCSc1cc(C2(Cc3nncn3C)COC2)cc(N2Cc3c(C=O)cc(CN4CCC[C@H](C)C4)cc3C2=O)n1 [Compound 169, 2-[6-(ethylsulfanyl)-4-{3-[(4-methyl-1,2,4-triazol-3-yl)methyl]oxetan-3-yl}pyridin-2-yl]-6-{[(3S)-3-methylpiperidin-1-yl]methyl}-1-oxo-3H-isoindole-4-carbaldehyde]
IL-2 1 nM (Human primary T cells [1]): C (values between 0.10 and 0.30: range “C”) | IL-2 10 nM (Human primary T cells [1]): C (values between 0.10 and 0.30: range “C”) | IL-2 100 nM (Human primary T cells [1]): C (values between 0.10 and 0.30: range “C”) | CD69 1 nM (Human primary T cells [2]): C (values between 0.30 and 0.60: range “C”) | CD69 10 nM (Human primary T cells [2]): C (values between 0.30 and 0.60: range “C”) | CD69 100 nM (Human primary T cells [2]): C (values between 0.30 and 0.60: range “C”) | IFN-y 1 nM (Human primary T cells [3]): C (values between 0.10 and 0.30: range “C”) | IFN-y 10 nM (Human primary T cells [3]): B (values between 0.31 and 1.00: range “B;”) | IFN-y 100 nM (Human primary T cells [3]): B (values between 0.31 and 1.00: range “B;”) | IC50 [4]: 5.01 to 20 nM
